Test [1] addresses T1, cloned human KOR (hKOR), kappa-opioid receptor (Homo sapiens, UniProt P41145). In words: biochemical.
The target in test [2] is T1, cloned human KOR (hKOR), kappa-opioid receptor.

pEC50, pKi: −log10 of the molar value.

T1 sequence (P41145 whole entry): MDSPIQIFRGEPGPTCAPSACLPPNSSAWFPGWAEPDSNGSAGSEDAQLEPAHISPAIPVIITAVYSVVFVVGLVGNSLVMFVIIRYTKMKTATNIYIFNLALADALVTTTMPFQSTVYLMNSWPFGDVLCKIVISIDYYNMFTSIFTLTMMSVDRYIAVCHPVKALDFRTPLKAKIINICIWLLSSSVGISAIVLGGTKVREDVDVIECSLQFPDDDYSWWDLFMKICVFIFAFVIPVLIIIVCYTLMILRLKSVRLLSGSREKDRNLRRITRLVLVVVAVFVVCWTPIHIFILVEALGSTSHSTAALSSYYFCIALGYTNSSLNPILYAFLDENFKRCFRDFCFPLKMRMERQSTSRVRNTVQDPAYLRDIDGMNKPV

In test [1], `CNC1(c2ccccc2Cl)CCCCC1=O` (centres unmarked) [ketamine] gave a pEC50 of 4.54. In test [2], this compound showed a pKi of 4.60.

For the origin of these results see article PMC2869248 (Psychopharmacology, 2010).
